Source: patent publication US20260325533A1, “CDK INHIBITOR COMPOUNDS” (ALEKSIA THERAPEUTICS, INC., priority 2023, published 2026)
Where two headings read alike, the source gives them in different places.

Experiments:
Type in all cases: biochemical
CDK4/CCND3 = CDK4/CCND3 (Homo sapiens, UniProt P11802); test: CDK4 homogeneous time-resolved fluorescence (HTRF) kinase assay; settings: CDK4/CCND
Method in brief: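 Inhibition of CDK4/CCND3 (1.5 nM) was measured at high ATP (1 mM) using 50 nM ULight-labelled 4E-BP1 Thr37/46 peptide; detection used 2 nM europium anti-phospho antibody after EDTA quench. IC50 values came from 11-point half-log titrations typically starting at 10 μM.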

CDK1/CCNB1 = CDK1/CCNB1 (Homo sapiens, UniProt P06493); test: CDK1 homogeneous time-resolved fluorescence (HTRF) kinase assay; settings: CDK1/CCNB
Method in brief: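 Compounds, titrated 11 points in half-log steps typically from 10 μM, were incubated with enzyme for 20 min before ATP (1 mM) and ULight-labelled eIF4E-binding protein 1 peptide (50 nM) started a 60-min reaction at 23 °C. Phosphopeptide was detected by europium-antibody TR-FRET and IC50 values were derived.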

CDK2/CCNE1 = CDK2/CCNE1 (Homo sapiens, UniProt P24941); test: CDK2 homogeneous time-resolved fluorescence (HTRF) kinase assay; settings: CDK2/CCNE
Method in brief: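 Compounds were titrated 11-point, half-log from typically 10 μM against 3 nM CDK2/cyclin E1 at 1 mM ATP, with a 20 min enzyme preincubation. Phosphorylation of 50 nM ULight-4E-BP1 peptide over 60 min at 23 °C was detected by europium anti-phospho antibody TR-FRET.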

CDK6/CCND1 = CDK6/CCND1 (Homo sapiens, UniProt Q00534); test: CDK6 homogeneous time-resolved fluorescence (HTRF) kinase assay; settings: CDK6/CCND, 1 mM ATP
Method in brief: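 1 nM enzyme, 1 mM ATP, 50 nM ULight-4E-BP1 (Thr37/46) peptide, 1% DMSO; 20 min compound preincubation, 60 min reaction, 23 °C. EDTA stop, 2 nM Eu-anti-phospho-4E-BP1 antibody 60 min. TR-FRET 665 nm (or 665/615 ratio); IC50 from 11-point half-log titration, top 10 μM.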

[1] = >250 nM, read-out: CDK4/CCND IC50, >250 nM
[2] = >250 nM, read-out: CDK1/CCNB IC50 >250 nM
[3] = <25 nM, read-out: CDK2/CCNE IC50, <25 nM
[4] = >250 nM, read-out: CDK6/CCND IC50, >250 nM
[5] = 25-250 nM, read-out: CDK1/CCNB IC50, 25-250 nM
[6] = 25-250 nM, read-out: CDK6/CCND IC50, 25-250 nM
[7] = 25-250 nM, read-out: CDK2/CCNE IC50, 25-250 nM

CDK1/CCNB1, sequence (P06493 whole entry): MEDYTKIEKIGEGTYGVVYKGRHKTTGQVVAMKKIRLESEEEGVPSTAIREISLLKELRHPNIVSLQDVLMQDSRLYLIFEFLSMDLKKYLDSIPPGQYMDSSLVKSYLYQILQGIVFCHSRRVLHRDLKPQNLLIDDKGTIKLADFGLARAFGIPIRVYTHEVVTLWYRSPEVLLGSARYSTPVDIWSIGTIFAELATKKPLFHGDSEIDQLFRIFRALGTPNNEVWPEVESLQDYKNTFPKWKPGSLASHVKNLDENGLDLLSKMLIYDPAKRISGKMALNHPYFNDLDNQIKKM
CDK1/CCNB1, sequence (P14635 whole entry partner): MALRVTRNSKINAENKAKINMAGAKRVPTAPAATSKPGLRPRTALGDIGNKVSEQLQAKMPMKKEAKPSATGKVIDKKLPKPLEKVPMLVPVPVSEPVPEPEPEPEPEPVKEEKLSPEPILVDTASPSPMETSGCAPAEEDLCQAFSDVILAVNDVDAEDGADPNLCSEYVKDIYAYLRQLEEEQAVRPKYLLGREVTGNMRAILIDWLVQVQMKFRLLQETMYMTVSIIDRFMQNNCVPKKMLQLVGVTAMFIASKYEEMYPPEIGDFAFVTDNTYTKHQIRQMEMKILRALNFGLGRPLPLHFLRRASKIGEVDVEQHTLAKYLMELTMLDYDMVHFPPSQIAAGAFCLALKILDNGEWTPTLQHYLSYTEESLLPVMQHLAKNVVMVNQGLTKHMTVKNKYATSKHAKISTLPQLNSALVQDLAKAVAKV
CDK6/CCND1, sequence (Q00534 whole entry): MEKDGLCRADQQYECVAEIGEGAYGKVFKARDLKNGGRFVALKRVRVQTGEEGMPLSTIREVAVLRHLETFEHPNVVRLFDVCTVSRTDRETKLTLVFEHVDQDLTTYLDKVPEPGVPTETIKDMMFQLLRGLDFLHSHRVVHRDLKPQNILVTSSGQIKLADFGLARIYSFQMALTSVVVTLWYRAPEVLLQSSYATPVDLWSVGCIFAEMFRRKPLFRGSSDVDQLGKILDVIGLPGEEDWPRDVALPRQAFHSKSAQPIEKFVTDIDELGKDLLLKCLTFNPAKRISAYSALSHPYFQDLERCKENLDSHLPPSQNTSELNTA
CDK6/CCND1, sequence (P24385 whole entry partner): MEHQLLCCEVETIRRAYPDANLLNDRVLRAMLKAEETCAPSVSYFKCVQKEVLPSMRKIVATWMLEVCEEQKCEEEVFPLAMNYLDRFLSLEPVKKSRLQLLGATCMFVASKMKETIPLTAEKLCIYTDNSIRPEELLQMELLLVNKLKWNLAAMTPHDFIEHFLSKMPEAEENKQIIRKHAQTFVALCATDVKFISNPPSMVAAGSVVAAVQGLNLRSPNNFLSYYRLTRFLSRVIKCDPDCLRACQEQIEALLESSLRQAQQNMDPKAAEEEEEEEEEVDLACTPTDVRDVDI
CDK4/CCND3, sequence (P11802 whole entry): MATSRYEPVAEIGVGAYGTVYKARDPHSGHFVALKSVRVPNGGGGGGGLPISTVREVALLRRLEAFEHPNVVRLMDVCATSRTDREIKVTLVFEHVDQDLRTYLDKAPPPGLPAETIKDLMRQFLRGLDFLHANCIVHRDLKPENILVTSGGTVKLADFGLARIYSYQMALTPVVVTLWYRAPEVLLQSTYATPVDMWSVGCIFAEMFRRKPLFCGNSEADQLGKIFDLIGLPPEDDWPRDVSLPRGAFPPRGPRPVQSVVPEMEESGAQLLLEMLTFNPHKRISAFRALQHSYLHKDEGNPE
CDK4/CCND3, sequence (P30281 whole entry partner): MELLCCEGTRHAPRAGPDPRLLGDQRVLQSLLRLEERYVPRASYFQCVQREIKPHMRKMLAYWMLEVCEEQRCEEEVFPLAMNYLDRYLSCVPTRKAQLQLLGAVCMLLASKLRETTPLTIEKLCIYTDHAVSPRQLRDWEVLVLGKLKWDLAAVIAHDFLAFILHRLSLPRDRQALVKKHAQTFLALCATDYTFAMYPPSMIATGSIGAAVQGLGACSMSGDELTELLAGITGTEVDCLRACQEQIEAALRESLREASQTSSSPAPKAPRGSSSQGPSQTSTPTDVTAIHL

| IC50 (CDK4/CCND3; [1]) | IC50 (CDK1/CCNB1; [2]) | IC50 (CDK2/CCNE1; [3]) | IC50 (CDK6/CCND1; [4]) | IC50 (CDK1/CCNB1; [5]) | IC50 (CDK6/CCND1; [6]) | IC50 (CDK2/CCNE1; [7]) | IC50 (CDK4/CCND3; 25-250 nM, read-out: CDK4/CCND IC50, 25-250 nM) | IC50 (CDK2/CCNE1; >250 nM, read-out: CDK2/CCNE IC50, >250 nM) | SMILES |
| --- | --- | --- | --- | --- | --- | --- | --- | --- | --- |
| > 250 nM | > 250 nM | < 25 nM | > 250 nM |  |  |  |  |  | CC[C@H](C)NS(=O)(=O)c1ccc(Nc2cc3c(-c4ccc5c(cnn5CC(C)(C)O)c4C)nccc3cn2)cc1 [Ex 722, (S)-N-(sec-butyl)-4-((5-(1-(2-hydroxy-2-methylpropyl)-4-methyl-1H-indazol-5-yl)-2,6-naphthyridin-3-yl)amino)benzenesulfonamide] |
| > 250 nM |  | < 25 nM |  | 25 to 250 nM | 25 to 250 nM |  |  |  | Cc1c(-c2nccc3cnc(Nc4ccc(S(N)(=O)=O)cc4)cc23)ccc2c1cnn2CC(O)(C(F)(F)F)C(F)(F)F [Ex 726, 4-((5-(4-methyl-1-(3,3,3-trifluoro-2-hydroxy-2-(trifluoromethyl)propyl)-1H-indazol-5-yl)-2,6-naphthyridin-3-yl)amino)benzenesulfonamide] |
| > 250 nM | > 250 nM | < 25 nM | > 250 nM |  |  |  |  |  | Cc1c(-c2nccc3cnc(Nc4ccc(S(=O)(=O)Nc5ncccn5)cc4)cc23)ccc2c1cnn2CC(O)(C(F)(F)F)C(F)(F)F [Ex 727, 4-((5-(4-methyl-1-(3,3,3-trifluoro-2-hydroxy-2-(trifluoromethyl)propyl)-1H-indazol-5-yl)-2,6-naphthyridin-3-yl)amino)-N-(pyrimidin-2-yl)benzenesulfonamide] |
| > 250 nM | > 250 nM |  | > 250 nM |  |  | 25 to 250 nM |  |  | Cc1c(-c2nccc3cnc(Nc4ccc(S(=O)(=O)Nc5ccccc5)cc4)cc23)ccc2c1cnn2CC(O)(C(F)(F)F)C(F)(F)F [Ex 728, 4-((5-(4-methyl-1-(3,3,3-trifluoro-2-hydroxy-2-(trifluoromethyl)propyl)-1H-indazol-5-yl)-2,6-naphthyridin-3-yl)amino)-N-phenylbenzenesulfonamide] |
| > 250 nM | > 250 nM |  | > 250 nM |  |  | 25 to 250 nM |  |  | Cc1c(-c2nccc3cnc(Nc4ccc(S(=O)(=O)NCc5ccccc5)cc4)cc23)ccc2c1cnn2CC(O)(C(F)(F)F)C(F)(F)F [Ex 729, N-benzyl-4-((5-(4-methyl-1-(3,3,3-trifluoro-2-hydroxy-2-(trifluoromethyl)propyl)-1H-indazol-5-yl)-2,6-naphthyridin-3-yl)amino)benzenesulfonamide] |
| > 250 nM | > 250 nM | < 25 nM | > 250 nM |  |  |  |  |  | Cc1c(-c2nccc3cnc(Nc4ccc(S(=O)(=O)NCc5ccccc5)cc4)cc23)ccc2c1cnn2CC(C)(C)O [Ex 730, N-benzyl-4-((5-(1-(2-hydroxy-2-methylpropyl)-4-methyl-1H-indazol-5-yl)-2,6-naphthyridin-3-yl)amino)benzenesulfonamide] |
| > 250 nM | > 250 nM |  | > 250 nM |  |  | 25 to 250 nM |  |  | CCN(c1ncccn1)S(=O)(=O)c1ccc(Nc2cc3c(-c4ccc5c(cnn5CC(O)(C(F)(F)F)C(F)(F)F)c4C)nccc3cn2)cc1 [Ex 731, N-ethyl-4-((5-(4-methyl-1-(3,3,3-trifluoro-2-hydroxy-2-(trifluoromethyl)propyl)-1H-indazol-5-yl)-2,6-naphthyridin-3-yl)amino)-N-(pyrimidin-2-yl)benzenesulfonamide] |
|  |  | < 25 nM |  | 25 to 250 nM | 25 to 250 nM |  | 25 to 250 nM |  | Cc1c(-c2nccc3cnc(Nc4ccc(S(=O)(=O)N(C)c5ncccn5)cc4)cc23)ccc2c1cnn2CC(C)(C)O [Ex 734, 4-((5-(1-(2-hydroxy-2-methylpropyl)-4-methyl-1H-indazol-5-yl)-2,6-naphthyridin-3-yl)amino)-N-methyl-N-(pyrimidin-2-yl)benzenesulfonamide] |
| > 250 nM | > 250 nM |  | > 250 nM |  |  | 25 to 250 nM |  |  | COc1cccc(NS(=O)(=O)c2ccc(Nc3cc4c(-c5ccc6c(cnn6CC(O)(C(F)(F)F)C(F)(F)F)c5C)nccc4cn3)cc2)n1 [Ex 735, N-(6-methoxypyridin-2-yl)-4-((5-(4-methyl-1-(3,3,3-trifluoro-2-hydroxy-2-(trifluoromethyl)propyl)-1H-indazol-5-yl)-2,6-naphthyridin-3-yl)amino)benzenesulfonamide] |
| > 250 nM | > 250 nM | < 25 nM | > 250 nM |  |  |  |  |  | Cc1cc(C)nc(NS(=O)(=O)c2ccc(Nc3cc4c(-c5ccc6c(cnn6CC(O)(C(F)(F)F)C(F)(F)F)c5C)nccc4cn3)cc2)n1 [Ex 736, N-(4,6-dimethylpyrimidin-2-yl)-4-((5-(4-methyl-1-(3,3,3-trifluoro-2-hydroxy-2-(trifluoromethyl)propyl)-1H-indazol-5-yl)-2,6-naphthyridin-3-yl)amino)benzenesulfonamide] |
| > 250 nM | > 250 nM | < 25 nM | > 250 nM |  |  |  |  |  | COc1ccnc(NS(=O)(=O)c2ccc(Nc3cc4c(-c5ccc6c(cnn6CC(O)(C(F)(F)F)C(F)(F)F)c5C)nccc4cn3)cc2)n1 [Ex 737, N-(4-methoxypyrimidin-2-yl)-4-((5-(4-methyl-1-(3,3,3-trifluoro-2-hydroxy-2-(trifluoromethyl)propyl)-1H-indazol-5-yl)-2,6-naphthyridin-3-yl)amino)benzenesulfonamide] |
| > 250 nM | > 250 nM |  | > 250 nM |  |  | 25 to 250 nM |  |  | Cc1c(-c2nccc3cnc(Nc4ccc(S(=O)(=O)Nc5cccc(N6CCOCC6)c5)cc4)cc23)ccc2c1cnn2CC(O)(C(F)(F)F)C(F)(F)F [Ex 738, 4-((5-(4-methyl-1-(3,3,3-trifluoro-2-hydroxy-2-(trifluoromethyl)propyl)-1H-indazol-5-yl)-2,6-naphthyridin-3-yl)amino)-N-(3-morpholinophenyl)benzenesulfonamide] |
| > 250 nM | > 250 nM |  | > 250 nM |  |  | 25 to 250 nM |  |  | COc1cc(NS(=O)(=O)c2ccc(Nc3cc4c(-c5ccc6c(cnn6CC(O)(C(F)(F)F)C(F)(F)F)c5C)nccc4cn3)cc2)cc(OC)c1 [Ex 739, N-(3,5-dimethoxyphenyl)-4-((5-(4-methyl-1-(3,3,3-trifluoro-2-hydroxy-2-(trifluoromethyl)propyl)-1H-indazol-5-yl)-2,6-naphthyridin-3-yl)amino)benzenesulfonamide] |
| > 250 nM | > 250 nM |  | > 250 nM |  |  |  |  | > 250 nM | Cc1c(-c2nccc3cnc(Nc4ccc(S(=O)(=O)Nc5cc(C(F)(F)F)ccn5)cc4)cc23)ccc2c1cnn2CC(O)(C(F)(F)F)C(F)(F)F [Ex 740, 4-((5-(4-methyl-1-(3,3,3-trifluoro-2-hydroxy-2-(trifluoromethyl)propyl)-1H-indazol-5-yl)-2,6-naphthyridin-3-yl)amino)-N-(4-(trifluoromethyl)pyridin-2-yl)benzenesulfonamide] |
| > 250 nM | > 250 nM | < 25 nM | > 250 nM |  |  |  |  |  | Cc1c(-c2nccc3cnc(Nc4ccc(S(=O)(=O)Nc5cc(N6CCOCC6)ccn5)cc4)cc23)ccc2c1cnn2CC(O)(C(F)(F)F)C(F)(F)F [Ex 741, 4-((5-(4-methyl-1-(3,3,3-trifluoro-2-hydroxy-2-(trifluoromethyl)propyl)-1H-indazol-5-yl)-2,6-naphthyridin-3-yl)amino)-N-(4-morpholinopyridin-2-yl)benzenesulfonamide] |
| > 250 nM | > 250 nM |  | > 250 nM |  |  | 25 to 250 nM |  |  | COc1cc(NS(=O)(=O)c2ccc(Nc3cc4c(-c5ccc6c(cnn6CC(O)(C(F)(F)F)C(F)(F)F)c5C)nccc4cn3)cc2)nc(OC)c1 [Ex 742, N-(4,6-dimethoxypyridin-2-yl)-4-((5-(4-methyl-1-(3,3,3-trifluoro-2-hydroxy-2-(trifluoromethyl)propyl)-1H-indazol-5-yl)-2,6-naphthyridin-3-yl)amino)benzenesulfonamide] |
| > 250 nM | > 250 nM | < 25 nM | > 250 nM |  |  |  |  |  | COc1cnc(NS(=O)(=O)c2ccc(Nc3cc4c(-c5ccc6c(cnn6CC(O)(C(F)(F)F)C(F)(F)F)c5C)nccc4cn3)cc2)nc1 [Ex 743, N-(5-methoxypyrimidin-2-yl)-4-((5-(4-methyl-1-(3,3,3-trifluoro-2-hydroxy-2-(trifluoromethyl)propyl)-1H-indazol-5-yl)-2,6-naphthyridin-3-yl)amino)benzenesulfonamide] |
